Measurements from US10597388B2, “Pyridazinone herbicides” (FMC CORPORATION, priority 2014, dated 2020).
Read-outs that look alike come from different tables or passages of the source.

Experiments:
Type in all cases: in vivo
[1] = system: barnyardgrass (Echinochloa crus-galli); assay: Test A greenhouse herbicide test, pre- and postemergence; details: 1000 g ai/ha, 0 to 100 scale; for pest or weed control at 1000 g/ha: Echinochloa crus-galli, 240 h
Method in brief: (§1)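 Seeds sown in loam–sand blend got a preemergence directed soil spray of compound in non-phytotoxic solvent with surfactant. Postemergence treatment was given at 2–10 cm, one- to two-leaf stage. After ~10 d in greenhouse, injury was rated visually vs untreated controls, 0 (no effect) to 100 (complete control).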

corn (Zea mays) = assay: as above; details: 1000 g ai/ha, 0 to 100 scale
Method in brief: as §1

[2] = system: crabgrass, large (large crabgrass, Digitaria sanguinalis); assay: as above; details: 1000 g ai/ha, 0 to 100 scale
Method in brief: as §1

[3] = system: foxtail, giant (giant foxtail, Setaria faberii); assay: as above; details: 1000 g ai/ha, 0 to 100 scale; for pest or weed control at 1000 g/ha: Setaria faberi, 240 h
Method in brief: as §1

[4] = system: momingglory (Ipomoea spp.); assay: as above; details: 1000 g ai/ha, 0 to 100 scale; for pest or weed control at 1000 g/ha: Ipomoea, 240 h
Method in brief: as §1

[5] = system: pigweed (Amaranthus retroflexus); assay: as above; details: 1000 g ai/ha, 0 to 100 scale
Method in brief: as §1

[6] = system: velvetleaf (Abutilon theophrasti); assay: as above; details: Preemergence, 1000 g ai/ha, 0 to 100 scale, 0 no effect, 100 complete control
Method in brief: as §1

[7] = system: wheat (Triticum aestivum); assay: as above; details: 1000 g ai/ha, 0 to 100 scale; for plant injury at 1000 g/ha: Triticum aestivum, 240 h
Method in brief: as §1

[8] = system: barnyardgrass (Echinochloa crus-galli); assay: Test B flooded paddy test; details: 250 g ai/ha, Flood; visual rating on scale of 0 to 100 where 0 is no effect and 100 is complete control; 13 to 15 d after treatment
Method in brief: (§2)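 Plants at the 2-leaf stage were flooded to 3 cm above soil, and test compounds were applied directly into the paddy water, which was held at that depth throughout. After 13 to 15 d in a greenhouse, injury was rated visually against untreated controls on a 0–100 scale (0 no effect, 100 complete control).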

[9] = system: ducksalad (Heteranthera limosa); assay: Test B flooded paddy test; details: 250 g ai/ha, Flood; visual rating on scale of 0 to 100 where 0 is no effect and 100 is complete control; 13 to 15 d after treatment
Method in brief: as §2

rice (Oryza sativa) = assay: Test B flooded paddy test; details: 250 g ai/ha, Flood; visual rating on scale of 0 to 100 where 0 is no effect and 100 is complete control; 13 to 15 d after treatment
Method in brief: as §2

[10] = system: sedge, umbrella (small-flower umbrella sedge, Cyperus difformis); assay: Test B flooded paddy test; details: 250 g ai/ha, Flood; visual rating on scale of 0 to 100 where 0 is no effect and 100 is complete control; 13 to 15 d after treatment
Method in brief: as §2

[11] = Postemergence, 0 is no effect, 100 is complete control
[12] = Preemergence, 0 no effect, 100 complete control

Compound: 5-hydroxy-4-(5-methoxy-3-benzofuranyl)-2,6-dimethyl-3(2H)-pyridazinone [Compound 5]
- Barnyardgrass plant response rating [1, 11]: 40
- Plant response rating, Barnyardgrass [1, 12]: 90
- Corn plant response rating (corn (Zea mays); [11]): 0
- Plant response rating, Corn (corn (Zea mays); [12]): 0
- Crabgrass, Large plant response rating [2, 11]: 80
- Plant response rating, Crabgrass, Large [2, 12]: 90
- Foxtail, Giant plant response rating [3, 11]: 80
- Plant response rating, Foxtail, Giant [3, 12]: 80
- Morningglory plant response rating [4, 11]: 70
- Plant response rating, Morningglory [4, 12]: 0
- Pigweed plant response rating [5, 11]: 10
- Plant response rating, Pigweed [5, 12]: 0
- Plant response rating, Velvetleaf [6]: 0
- Wheat plant response rating [7, 11]: 0
- Plant response rating, Wheat [7, 12]: 0
- Plant response rating, Barnyardgrass [8]: 0
- Plant response rating, Ducksalad [9]: 45
- Plant response rating, Rice (rice (Oryza sativa)): 0
- Plant response rating, Sedge, Umbrella [10]: 75

Compound: Cc1nn(C)c(=O)c(-c2c(C)oc3ccc(Cl)cc23)c1O [Compound 6, 4-(5-chloro-2-methyl-3-benzofuranyl)-5-hydroxy-2,6-dimethyl-3 (2H)-pyridazinone]
- pest or weed control at 1000 g/ha ([1]; post-emergence, Postemergence, 0 is no effect, 100 is complete control, read-out: Barnyardgrass plant response rating): 70%
- pest or weed control at 1000 g/ha ([1]; pre-emergence, Preemergence, 0 no effect, 100 complete control, read-out: Plant response rating, Barnyardgrass): 100%
- plant injury at 1000 g/ha (corn (Zea mays); Zea mays, post-emergence, 240 h, Postemergence, 0 is no effect, 100 is complete control, read-out: Corn plant response rating): 0%
- Corn plant response rating (crop injury, 0 = no effect, 100 = complete kill) at 1000 g/ha (corn (Zea mays); Zea mays, pre-emergence, 240 h, Preemergence, 0 no effect, 100 complete control): 30%
- pest or weed control at 1000 g/ha ([2]; Digitaria sanguinalis, post-emergence, 240 h, Postemergence, 0 is no effect, 100 is complete control, read-out: Crabgrass, Large plant response rating): 50%
- pest or weed control at 1000 g/ha ([3]; post-emergence, Postemergence, 0 is no effect, 100 is complete control, read-out: Foxtail, Giant plant response rating): 70%
- pest or weed control at 1000 g/ha ([3]; pre-emergence, Preemergence, 0 no effect, 100 complete control, read-out: Plant response rating, Foxtail, Giant): 50%
- pest or weed control at 1000 g/ha ([4]; post-emergence, Postemergence, 0 is no effect, 100 is complete control, read-out: Morningglory plant response rating): 40%
- pest or weed control at 1000 g/ha ([4]; pre-emergence, Preemergence, 0 no effect, 100 complete control, read-out: Plant response rating, Morningglory): 10%
- pest or weed control at 1000 g/ha ([5]; Amaranthus retroflexus, post-emergence, 240 h, Postemergence, 0 is no effect, 100 is complete control, read-out: Pigweed plant response rating): 50%
- pest or weed control at 1000 g/ha ([6]; Abutilon theophrasti, pre-emergence, 240 h, read-out: Plant response rating, Velvetleaf): 20%
- plant injury at 1000 g/ha ([7]; post-emergence, Postemergence, 0 is no effect, 100 is complete control, read-out: Wheat plant response rating): 20%
- plant injury at 1000 g/ha ([7]; pre-emergence, Preemergence, 0 no effect, 100 complete control, read-out: Plant response rating, Wheat): 0%
